Source: publication PMC12363935, “Unc-51 Like Kinase 3 (ULK3) is essential for autophagy and cell survival in multiple myeloma” (Research Square, 2025)
Several values for one entry are separate records, joined by “and”; a condition that tells them apart may be missing. Equal values may be shown once.

Assays:
[1] = test system: MM cells (5TGM1, 8226, and U266); assay: MTS assay on MM cells; type: cell-based
Protocol: Myeloma cell lines were plated in 96-well plates (2 × 10^5 cells/ml) and treated with vehicle control (HPβCD) and test compounds. Cell viability was assessed at 48 hours using the MTS assay (CellTiter 96, CAT# G3582). Absorbance was measured at 490 nm after a 2-hour incubation at 37°C. IC50 values were calculated using Prism software (version 9.3.1), and synergy matrices were generated with Combenefit Software.

primary CD138+ MM cells = assay: EMMA ex vivo platform, live cell imaging, 96 hours, collagen matrix with bone marrow stroma and patient plasma; type: cell-based; parameters: scale not given here
From the text: For clinical robustness, we tested the activity of MA9 in MM patient samples using our ex vivo mathematical myeloma advisor (EMMA) platform (Supplementary Table 1). […]
For these assays, we used a novel EMMA platform developed at Moffitt. Further details are included in the supplemental Materials. […]
400 Ex vivo drug sensitivity characterization
401 An ex vivo assay was used to quantify the chemosensitivity of primary MM cells. Fresh BM
402 aspirate cells were enriched for CD138+ expression using Miltenyi (Bergisch Gladbach, Germany)
MM cells (CD138+) were seeded in Corning
404 Cell BIND 384 well plates (Corning, NY) with collagen I and previously established human-
407 inactivated), penicillin/streptomycin, and patient-derived plasma (10%, freshly obtained from
409 added using a robotic plate handler so that every drug/combination was tested at 5 (fixed
410 concentration ratio, for combinations) concentrations (1:3 serial dilution) in two replicates.
411 Negative controls (supplemented growth media with and without the vehicle control dimethyl
412 sulfoxide [DMSO]) were included, as well as positive controls for each drug (cell line MM1.S at
413 highest drug concentration). Plates were placed in a motorized stage microscope (EVOS Auto FL,
414 Life Technologies, Carlsbad, CA) equipped with an incubator and maintained at 5% CO2 and 37
415 °C. […]
Digital image analysis computes the percent
418 viability of MM cells for each time point and experimental condition (drug and concentration)

Question: How did the “effect on cell survival” value [1] turn out when `N#CC[C@H](C1CCCC1)n1cc(-c2ncnc3[nH]ccc23)cn1` [ruxolitinib] was run?
Answer: no effect

Question: What does the source list for `CC(C)C[C@H](NC(=O)[C@H](CCc1ccccc1)NC(=O)CN1CCOCC1)C(=O)N[C@@H](Cc1ccccc1)C(=O)N[C@@H](CC(C)C)C(=O)[C@@]1(C)CO1` [CFZ, carfilzomib]?
Answer: AUC (primary CD138+ MM cells; Pt620, NDMM): 36.78; AUC (primary CD138+ MM cells; Pt622, LRRMM): 32.89; AUC (primary CD138+ MM cells; Pt625, NDMM): 36.25; AUC (primary CD138+ MM cells; Pt636, ERRMM): 53.52; AUC (primary CD138+ MM cells; Pt638, NDMM): 44.52; AUC (primary CD138+ MM cells; Pt639, NDMM): 52.97; AUC (primary CD138+ MM cells; Pt648, LRMM): 48.435; AUC (primary CD138+ MM cells; Pt652, LRMM): 67.924; AUC (primary CD138+ MM cells; Pt653, LRMM): 60.160; AUC (primary CD138+ MM cells; Pt655, LRMM): 37.063 and 37.06; AUC (primary CD138+ MM cells; Pt663, LRMM): 48.477 and 48.48; AUC (primary CD138+ MM cells; Pt665, LRMM): 52.826 and 52.83; AUC (primary CD138+ MM cells; Pt666, LRMM): 40.984 and 40.98; AUC (primary CD138+ MM cells; Pt669, ERMM): 48.58; AUC (primary CD138+ MM cells; Pt672, NDMM): 56.496 and 56.5; AUC (primary CD138+ MM cells; Pt677, NDMM): 38.487 and 37.936; AUC (primary CD138+ MM cells; Pt680, ERMM): 43.762 and 43.248 and 43.76; AUC (primary CD138+ MM cells; Pt685, ERMM): 44.316 and 44.32; AUC (primary CD138+ MM cells; Pt689, NDMM): 43.578; AUC (primary CD138+ MM cells; Pt691, LRMM): 40.781 and 40.78; AUC (primary CD138+ MM cells; Pt693, SMOL): 97.333 and 97.33; AUC (primary CD138+ MM cells; Pt694, NDMM): 49.029 and 49.03; AUC (primary CD138+ MM cells; Pt695, LRMM): 54.535 and 54.53; AUC (primary CD138+ MM cells; Pt697, NDMM): 45.229 and 45.23; AUC (primary CD138+ MM cells; Pt700, NDMM): 48.455 and 54.337 and 54.34; AUC (primary CD138+ MM cells; Pt707, LRMM): 60.754 and 60.75; AUC (primary CD138+ MM cells; Pt718, SMOL): 58.31; AUC (primary CD138+ MM cells; Pt737, MGUS): 45.483; AUC (primary CD138+ MM cells; Pt738, NDMM): 52.453 and 52.45; AUC (primary CD138+ MM cells; Pt740, SMOL): 45.352; AUC (primary CD138+ MM cells; Pt745, NDMM): 68.911; AUC (primary CD138+ MM cells; Pt765, LRRMM): 59.77; AUC (primary CD138+ MM cells; Pt773, LRRMM): 32.99; AUC (primary CD138+ MM cells; Pt808, LRRMM): 47.11; AUC (primary CD138+ MM cells; Pt814, LRRMM): 62.23; AUC (primary CD138+ MM cells; Pt821, NDMM): 54.79; AUC (primary CD138+ MM cells; Pt822, ERRMM): 62.96; AUC (primary CD138+ MM cells; Pt825, NDMM): 59.86; AUC (primary CD138+ MM cells; Pt830, ERRMM): 61.41; AUC (primary CD138+ MM cells; Pt849, LRRMM): 99.06; AUC (primary CD138+ MM cells; Pt852, NDMM): 28.629; AUC (primary CD138+ MM cells; Pt853, ERMM): 62.247 and 58.956; AUC (primary CD138+ MM cells; Pt856, NDMM): 48.272 and 48.27; AUC (primary CD138+ MM cells; Pt865, LRMM): 60.759 and 60.76; AUC (primary CD138+ MM cells; Pt866, NDMM): 75.161 and 75.16; AUC (primary CD138+ MM cells; Pt875, NDMM): 41.904 and 41.9; AUC (primary CD138+ MM cells; Pt885, NDMM): 51.382 and 45.860 and 51.38; AUC (primary CD138+ MM cells; Pt888, LRMM): 51.003 and 51; AUC (primary CD138+ MM cells; Pt893, LRMM): 92.226; AUC (primary CD138+ MM cells; Pt899, SMOL): 53.140; AUC (primary CD138+ MM cells; Pt906, NDMM): 58.079 and 58.08; AUC (primary CD138+ MM cells; Pt909, LRMM): 32.841; AUC (primary CD138+ MM cells; Pt912, PCL): 23.632; AUC (primary CD138+ MM cells; Pt917, LRMM): 75.009; AUC (primary CD138+ MM cells; Pt920, LRMM): 39.820; AUC (primary CD138+ MM cells; Pt923, LRMM): 54.728 and 54.73; AUC (primary CD138+ MM cells; Pt932, LRMM): 43.433; AUC (primary CD138+ MM cells; Pt933, LRMM): 54.495 and 54.49; AUC (primary CD138+ MM cells; Pt935, NDMM): 46.326 and 46.33; AUC (primary CD138+ MM cells; Pt936, LRMM): 50.956; AUC (primary CD138+ MM cells; Pt937, NDMM): 51.703 and 49.814; AUC (primary CD138+ MM cells; Pt940, LRMM): 63.001; AUC (primary CD138+ MM cells; Pt945, LRMM): 53.027; AUC (primary CD138+ MM cells; Pt948, LRMM): 57.94; AUC (primary CD138+ MM cells; Pt951, ERMM): 62.878 and 62.88; AUC (primary CD138+ MM cells; Pt956, NDMM): 68.610 and 64.376; AUC (primary CD138+ MM cells; Pt957, LRMM): 82.913; AUC (primary CD138+ MM cells; Pt961, NDMM): 64.332 and 67.807
